Data published in the supplement of paper PMC10307832.

Tests used:
Test in all cases: relative viability (nuclei count vs DMSO), 5 days (fraction); higher = more cells survive
EHT 1864 + Tozasertib = compound: C1COCCN1CC2=CC(=O)C(=CO2)OCCCCCSC3=C4C=CC(=CC4=NC=C3)C(F)(F)F [EHT 1864] + Cc1cc(Nc2cc(N3CCN(C)CC3)nc(Sc3ccc(NC(=O)C4CC4)cc3)n2)n[nH]1 [Tozasertib] (partner 0.1 µM)
Summary of the method: (§1)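 Nuclei were stained with Hoechst during a one-step fixation (final 0.05% Triton X-100, 1% formaldehyde, 1 ug/ml Hoechst) carried out 5 days after dosing, then counted on 4× images. The cells, lung cancer lines in 1536-well plates, had been dosed by pin tool the day after seeding with one drug alone or a fixed anchor-drug dose plus five library-drug doses (not always all listed) in √10 steps. Relative viability is the nuclei count in treated wells divided by that in vehicle wells, and each value is the median of duplicate plates.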

EHT 1864 + Bortezomib = compound: C1COCCN1CC2=CC(=O)C(=CO2)OCCCCCSC3=C4C=CC(=CC4=NC=C3)C(F)(F)F [EHT 1864] + CC(C)C[C@H](NC(=O)[C@H](Cc1ccccc1)NC(=O)c1cnccn1)B(O)O [Bortezomib] (partner 0.002 µM)
Summary of the method: as §1

EHT 1864 + Decitabine = compound: C1COCCN1CC2=CC(=O)C(=CO2)OCCCCCSC3=C4C=CC(=CC4=NC=C3)C(F)(F)F [EHT 1864] + Nc1ncn([C@H]2C[C@H](O)[C@@H](CO)O2)c(=O)n1 [Decitabine] (partner 2 µM)
Summary of the method: as §1

EHT 1864 + AZD7762 = compound: C1COCCN1CC2=CC(=O)C(=CO2)OCCCCCSC3=C4C=CC(=CC4=NC=C3)C(F)(F)F [EHT 1864] + NC(=O)Nc1cc(-c2cccc(F)c2)sc1C(=O)N[C@H]1CCCNC1 [AZD7762] (partner 0.2 µM)
Summary of the method: as §1

Row | Cell Line | relative viability (EHT 1864 + Tozasertib; first compound 0.04 µM) | relative viability (EHT 1864 + Tozasertib; first compound 0.1265 µM) | relative viability (EHT 1864 + Tozasertib; first compound 0.4 µM) | relative viability (EHT 1864 + Tozasertib; first compound 1.265 µM) | relative viability (EHT 1864 + Tozasertib; first compound 4 µM) | relative viability (EHT 1864 + Bortezomib; first compound 0.04 µM) | relative viability (EHT 1864 + Bortezomib; first compound 0.1265 µM) | relative viability (EHT 1864 + Bortezomib; first compound 0.4 µM) | relative viability (EHT 1864 + Bortezomib; first compound 1.265 µM) | relative viability (EHT 1864 + Bortezomib; first compound 4 µM) | relative viability (EHT 1864 + Decitabine; first compound 0.04 µM) | relative viability (EHT 1864 + Decitabine; first compound 0.1265 µM) | relative viability (EHT 1864 + Decitabine; first compound 0.4 µM) | relative viability (EHT 1864 + Decitabine; first compound 1.265 µM) | relative viability (EHT 1864 + Decitabine; first compound 4 µM) | relative viability (EHT 1864 + AZD7762; first compound 0.04 µM) | relative viability (EHT 1864 + AZD7762; first compound 0.1265 µM) | relative viability (EHT 1864 + AZD7762; first compound 0.4 µM) | relative viability (EHT 1864 + AZD7762; first compound 1.265 µM) | relative viability (EHT 1864 + AZD7762; first compound 4 µM)
1 | EMC-BAC-2 | 0.304 | 0.253 | 0.314 | 0.236 | 0.26 | 1.07 | 0.891 | 1.06 | 0.951 | 1.23 | 0.857 | 0.935 | 1 | 1.04 | 0.997 | 1.24 | 0.944 | 1.1 | 1.09 | 0.974
2 | NCI-H23 | 0.397 | 0.372 | 0.373 | 0.291 | 0.367 | 0.879 | – | 0.84 | 0.995 | 0.924 | 0.297 | 0.29 | 0.314 | 0.343 | 0.393 | 0.203 | 0.231 | 0.223 | 0.198 | 0.221
3 | RERF-LC-KJ | 0.493 | 0.473 | 0.523 | 0.381 | 0.352 | 1.05 | 0.948 | 1.04 | 0.951 | 1.15 | 0.588 | 0.691 | 0.61 | 0.694 | 0.576 | 0.893 | 0.873 | 0.96 | 0.939 | 1.43
4 | LC-2-ad | 0.483 | – | 0.516 | 0.391 | 0.487 | 0.924 | – | 0.993 | 1.04 | 0.903 | 0.783 | 0.733 | 0.762 | 0.773 | 0.755 | 0.808 | 0.634 | 0.88 | 0.855 | 0.806
5 | HCC-15 | 0.377 | – | 0.398 | 0.319 | 0.247 | 0.955 | 0.808 | 1.04 | 0.867 | 1.05 | 0.735 | – | 0.62 | 0.624 | 0.624 | 1.01 | – | 1.29 | 1.36 | 1.19
6 | NCI-H2405 | 0.8 | 0.678 | 0.847 | 0.633 | 0.726 | 1.05 | 0.945 | 0.84 | 0.76 | 1.02 | 0.832 | 0.717 | 0.785 | 0.736 | 0.772 | 0.8 | 0.657 | 0.728 | 0.687 | 0.697
7 | LXF-289 | 0.201 | 0.144 | 0.196 | 0.209 | 0.203 | 1.02 | 0.92 | 0.929 | 0.973 | 0.872 | 0.431 | 0.351 | 0.388 | 0.385 | 0.361 | 1.14 | 1.01 | 1.03 | 1.07 | 1.1
8 | NCI-H1755 | 0.606 | 0.51 | 0.483 | 0.487 | 0.536 | 1.02 | 0.824 | 0.895 | 0.899 | 0.941 | 0.803 | 0.685 | 0.702 | 0.707 | 0.755 | 0.438 | 0.424 | 0.405 | 0.402 | 0.456
9 | NCI-H1437 | 0.428 | 0.303 | 0.4 | 0.343 | 0.377 | 0.563 | 0.476 | 0.475 | 0.486 | 0.473 | 0.607 | 0.523 | 0.542 | 0.566 | 0.518 | 1.1 | 1.1 | 1.09 | 1.02 | 0.889
10 | NCI-H2085 | 0.8 | – | 0.791 | 0.641 | 0.576 | 0.989 | 0.785 | 0.962 | 0.971 | 0.782 | 0.604 | 0.551 | 0.588 | 0.656 | 0.555 | 0.962 | 0.645 | 0.973 | 0.987 | 0.942
11 | H3255 | 0.576 | 0.603 | 0.633 | 0.677 | 0.527 | 0.697 | 0.6 | 1.11 | 0.784 | 1.03 | 0.585 | 0.548 | – | 0.573 | 0.677 | 0.797 | 0.795 | 0.995 | 0.867 | 1.04
12 | NCI-H650 | 0.671 | 0.667 | 0.708 | 0.642 | 0.722 | 0.911 | – | 0.862 | 0.827 | 0.914 | 0.372 | 0.312 | 0.356 | 0.356 | 0.34 | 0.994 | 0.612 | 1.13 | 1.1 | 1.06
13 | LCLC-103H | 0.455 | 0.305 | 0.543 | 0.441 | 0.475 | 1.18 | 1.01 | 1.14 | 1.06 | 1.02 | 0.734 | 0.67 | 0.744 | 0.708 | 0.66 | 0.823 | 0.686 | 0.818 | 0.698 | 0.5
14 | LOU-NH91 | 0.614 | 0.551 | 0.67 | 0.609 | 0.69 | 0.566 | 0.514 | 0.492 | 0.498 | 0.498 | 0.793 | 0.754 | 0.842 | 0.804 | 0.754 | 0.746 | 0.67 | 0.759 | 0.735 | 0.755
15 | NCI-H3122 | 0.358 | 0.275 | 0.398 | 0.398 | 0.392 | 1.03 | 0.973 | 0.96 | 0.99 | 0.965 | 0.373 | 0.423 | 0.42 | 0.432 | 0.339 | 0.882 | 0.808 | 0.911 | 0.985 | 0.878
16 | PC-3 [JPC-3] | 0.818 | 0.812 | 0.903 | 0.896 | 0.843 | 0.83 | 0.737 | 0.895 | 0.853 | 0.763 | 0.801 | 0.745 | 0.877 | 0.954 | 0.844 | 0.825 | 0.753 | 0.808 | 0.73 | 0.863
